Values of other authors in publication PMC11768433 (Viruses, 2024).
Like-named read-outs stand apart in the source and are kept apart here.

What was measured:
[1] = tested on: Herpes simplex virus type 1(HSV-1); set-up: method as in Ref.18572274; details: HSV-1 entry, Vero cells, at 250μM; ref Ref.18572274
Vero cells [2] = tested on: Vero cells; set-up: method as in Ref.18572274; details: up to 500 μM, ref Ref.18572274
Vero cells [3] = tested on: Vero cells; set-up: method as in Ref.35055066; details: ref Ref.35055066
P4-CCR5 cells = tested on: P4-CCR5 cells; set-up: method as in Ref.15780876; details: ref Ref.15780876
HSV-1 = tested on: HSV-1; set-up: method as in Ref.35216177; details: HSV-1 replication, Vero cells; ref Ref.35216177
HSV-2 = tested on: HSV-2; set-up: method as in Ref.35216177; details: HSV-2 replication, Vero cells; ref Ref.35216177
SARS-CoV-2 [4] = tested on: SARS-CoV-2; set-up: method as in Ref.35216177; details: SARS-CoV-2 replication, Vero cells; ref Ref.35216177
HPIV-3 = tested on: HPIV-3; set-up: method as in Ref.35216177; details: HPIV-3 replication, Vero cells; ref Ref.35216177
HCoV-229E = tested on: HCoV-229E; set-up: method as in Ref.35216177; details: HCoV-229E replication, Vero cells; ref Ref.35216177
HCoV-OC43 = tested on: HCoV-OC43; set-up: method as in Ref.35216177; details: HCoV-OC43 replication, Vero cells; ref Ref.35216177
Vero cells [5] = tested on: Vero cells; set-up: method as in Ref.35216177; details: ref Ref.35216177
Huh7.5.1 cells = tested on: Huh7.5.1 cells; set-up: method as in Ref.22378192; details: ref Ref.22378192
Dengue virus 2(DENV2) = tested on: Dengue virus 2(DENV2); set-up: method as in Ref.35663971; details: DENV2, Huh7 cells, at 10 μM; ref Ref.35663971
HSV = tested on: HSV; set-up: method as in Ref.35663971; details: Huh7 cells, at 10 μM, ref Ref.35663971
SARS-CoV-2 [6] = tested on: SARS-CoV-2; set-up: method as in Ref.35663971; details: SARS-CoV-2, Huh7 cells, at 10 μM; ref Ref.35663971
Vero E6 cells = tested on: Vero E6 cells; set-up: method as in Ref.35663971; details: ref Ref.35663971
HIV-1 = tested on: HIV-1; set-up: method as in Ref.12054767; details: up to 100 μM; ref Ref.12054767
P4 cells = tested on: P4 cells; set-up: method as in Ref.12054767; details: MTT assay, peptide concentrations higher than 100 μM, ref Ref.12054767
MDCK cells = tested on: MDCK cells; set-up: method as in Ref.17005658; details: up to 50μM, ref Ref.17005658
hepatitis C virus(HCVpp) = tested on: hepatitis C virus(HCVpp); set-up: method as in Ref.20156485; details: Huh-7 human hepatoma cells, ref Ref.20156485
Huh-7 cells = tested on: Huh-7 cells; set-up: method as in Ref.20156485; details: ref Ref.20156485
Human PBMC = tested on: Human PBMC; set-up: method as in Ref.30867304; details: ref Ref.30867304
TZM-bl cells = tested on: TZM-bl cells; set-up: method as in Ref.30867304; details: ref Ref.30867304
MT-4 cells = tested on: MT-4 cells; set-up: method as in Ref.30867304; details: ref Ref.30867304
C8166 cells = tested on: C8166 cells; set-up: method as in Ref.30867304; details: ref Ref.30867304
U937 cells = tested on: U937 cells; set-up: method as in Ref.30867304; details: U937 cells (cell text ends after μ); ref Ref.30867304

AAHLIDALYAEFLGGRVLTT [DRAVPe01423]
inhibition [1]: 60%
cytotoxicity (Vero cells [2]): [Ref.18572274]No cytotoxicity against Vero cells up to 500 μM.

AIGSILGALAKGLPTLISWIKNR [DRAVPe00469, DRAVP database peptide AR-23]
CC50 (Vero cells [3]): 25 µM

ALWKTLLKKVLKAAAK [DRAVPe01957, DRAVP database peptide, target HIV]
CC50 (P4-CCR5 cells): [Ref.15780876]P4-CCR5 cells:CC50>100 μM.

ALWMTLLKKVLKAAAKAALNAVLVGANA [DRAVPe01956, DRAVP database peptide, target HIV]
CC50 (P4-CCR5 cells): 5.6 µM

FVPWFSKFlKRIL [DRAVPe00383, DRAVP database entry, TL peptide]
IC90 (HSV-1): 10.5 µM
IC90 (HSV-2): 7.99 µM
IC90 (SARS-CoV-2 [4]): 12.9 µM
IC90 (HPIV-3): > 50 µM
IC90 (HCoV-229E): 50 µM
IC90 (HCoV-OC43): 16.3 µM
CC50 (Vero cells [5]): 22.32 µM

FVPWFSKFlkRIL [DRAVPe00384, DRAVP database entry, TL peptide]
IC90 (HSV-1): 12.7 µM
IC90 (HSV-2): 12.5 µM
IC90 (SARS-CoV-2 [4]): 25.3 µM
IC90 (HPIV-3): > 50 µM
IC90 (HCoV-229E): 50 µM
IC90 (HCoV-OC43): 29.2 µM
CC50 (Vero cells [5]): 45.92 µM

GLASTLTRWAHYNALIRAF [DRAVPe01424]
cytotoxicity (Vero cells [2]): [Ref.18572274]No cytotoxicity against Vero cells up to 500 μM.

MANAGLQLLGFILAFLGW [DRAVPe01317, DRAVP database peptide, target HCV]
CC50 (Huh7.5.1 cells): ~200 Μm

MGRFKRFRKKFKKLFKKLS [DRAVPe01948, DRAVP database peptide bomidin]
inhibition (Dengue virus 2(DENV2)): 50%
inhibition (HSV): 50%
inhibition (SARS-CoV-2 [6]): 80%
CC50 (Vero E6 cells): 169.6 µM

QLLIRMI [DRAVPe00092, DRAVP database peptide, target HIV-1 integrase]
inhibition of HIV-1 infection (HIV-1): no inhibition
decrease of cell viability (P4 cells): ~5%

RRKKAAVALLPAVLLALLAP [DRAVPe01891]
cytotoxicity (MDCK cells): [Ref.17005658]No cytotoxicity against MDCK cells up to 50μM

VSFAIKWEYVLLLFLL [DRAVPe01483]
EC90 (hepatitis C virus(HCVpp)): 14 ± 12 µM
cytotoxicity (Huh-7 cells): [Ref.20156485]No cytotoxicity against Huh-7 cells.

WEQKIEELLKKAEEQQKKNEEELKKLEKX [DRAVPe00787]
CC50 (Human PBMC): 40.27 µM
CC50 (TZM-bl cells): 12.34 µM
CC50 (MT-4 cells): 19.65 µM
CC50 (C8166 cells): 19.19 µM
CC50 (U937 cells): 9.97 μ
